Laboratory results taken from ChEMBL document CHEMBL1129830, “A convenient synthesis of pseudoceratidine and three analogs for biological evaluation” (1997).
≈ marks a conversion by molar mass, not a printed value.

Tests used:
Format in all cases: functional
[1] = tested on: Escherichia coli; assay: Compound was evaluated for minimal inhibitory concentration against Escherichia coli
[2] = tested on: Pseudomonas aeruginosa; assay: Compound was evaluated for minimal inhibitory concentration against Pseudomonas aeruginosa
[3] = tested on: Serratia liquefaciens; assay: Compound was evaluated for minimal inhibitory concentration against Serratia liquefaciens
[4] = tested on: Staphylococcus aureus; assay: Compound was evaluated for minimal inhibitory concentration against Staphylococcus aureus
[5] = tested on: Listeria monocytogenes; assay: Compound was evaluated for minimal inhibitory concentration against Listeria monocytogenes
[6] = tested on: Serratia liquefaciens; assay: Compound was evaluated for minimal inhibitory concentration against Serratia liquefaciens; Growth delayed by concentrations >= 100 ug/ml
[7] = tested on: Pseudomonas aeruginosa; assay: Compound was evaluated for minimal inhibitory concentration against Pseudomonas aeruginosa; Growth delayed by concentrations >= 50 ug/ml and almost totally inhibited by 500 ug/ml
[8] = tested on: Serratia liquefaciens; assay: Compound was evaluated for minimal inhibitory concentration against Serratia liquefaciens; Growth delayed by concentrations >= 50 ug/ml and almost totally inhibited by 500 ug/ml

| SMILES | MIC [1] | MIC [2] | MIC [3] | MIC [4] | MIC [5] | MIC [6] | MIC [7] | MIC [8] |
| --- | --- | --- | --- | --- | --- | --- | --- | --- |
| O=C(NCCCCNCCCNC(=O)c1cc(Br)c[nH]1)c1cc(Br)c[nH]1 | 250 µg/mL (≈ 511 µM) | > 500 µg/mL | > 500 µg/mL | 100 µg/mL (≈ 204 µM) | 250 µg/mL (≈ 511 µM) |  |  |  |
| O=C(NCCCNCCCNC(=O)c1cc(Br)c(Br)[nH]1)c1cc(Br)c(Br)[nH]1 | 50 µg/mL (≈ 79 µM) | 100 µg/mL (≈ 158 µM) |  | 10 µg/mL (≈ 15.8 µM) | 10 µg/mL (≈ 15.8 µM) | > 500 µg/mL |  |  |
| O=C(NCCNCCNCCNC(=O)c1cc(Br)c(Br)[nH]1)c1cc(Br)c(Br)[nH]1 | 100 µg/mL (≈ 154 µM) |  |  | 50 µg/mL (≈ 77.2 µM) | 50 µg/mL (≈ 77.2 µM) |  | > 500 µg/mL | > 500 µg/mL |
| O=C(NCCCCNCCCNC(=O)c1cc(Br)c(Br)[nH]1)c1cc(Br)c(Br)[nH]1 | 50 µg/mL (≈ 77.3 µM) | 250 µg/mL (≈ 386 µM) | > 500 µg/mL | 5 µg/mL (≈ 7.73 µM) | 5 µg/mL (≈ 7.73 µM) |  |  |  |
